Data on 8 molecules can be found in patent publication US20050048508A1, “Trehalose receptor and method for detecting trehalose with the same” (KABUSHIKI KAISHA HAYASHIBARA SEIBUTSU KAGAKU KENKYUJO, priority 2002, published 2005).

For this test, the target named is T1, T1R3 with G protein α-subunits (α15 and α16/Z chimeric protein) (Mus musculus, UniProt Q925D8, I706N).
T1 construct: expressed in transfected cells; host or cells: 293 cells, RCB 1637 (human embryonic kidney)
T1 sequence (Q925D8 21-858 I706N): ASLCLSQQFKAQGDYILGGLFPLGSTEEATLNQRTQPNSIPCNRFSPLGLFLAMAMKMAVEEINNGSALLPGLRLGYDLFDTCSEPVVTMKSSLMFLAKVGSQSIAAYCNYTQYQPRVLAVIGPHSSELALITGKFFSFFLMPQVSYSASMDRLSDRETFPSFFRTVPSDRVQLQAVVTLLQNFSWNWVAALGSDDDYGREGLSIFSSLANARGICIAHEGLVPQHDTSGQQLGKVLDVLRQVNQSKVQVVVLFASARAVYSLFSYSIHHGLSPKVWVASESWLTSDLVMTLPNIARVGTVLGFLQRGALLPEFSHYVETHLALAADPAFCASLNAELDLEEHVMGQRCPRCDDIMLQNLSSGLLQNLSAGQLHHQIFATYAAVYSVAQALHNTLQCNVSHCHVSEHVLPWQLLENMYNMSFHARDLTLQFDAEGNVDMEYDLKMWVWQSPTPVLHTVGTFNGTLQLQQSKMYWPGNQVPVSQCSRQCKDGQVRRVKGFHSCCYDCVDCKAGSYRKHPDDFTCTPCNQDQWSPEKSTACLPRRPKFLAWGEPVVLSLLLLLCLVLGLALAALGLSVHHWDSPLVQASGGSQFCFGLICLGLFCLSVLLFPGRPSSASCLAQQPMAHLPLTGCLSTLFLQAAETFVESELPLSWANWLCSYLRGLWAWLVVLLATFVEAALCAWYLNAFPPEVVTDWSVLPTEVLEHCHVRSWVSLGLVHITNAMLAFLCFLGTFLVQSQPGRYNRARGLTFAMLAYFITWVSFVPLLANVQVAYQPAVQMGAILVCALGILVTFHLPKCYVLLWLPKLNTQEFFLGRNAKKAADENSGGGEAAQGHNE
Put plainly: Intracellular calcium ion assay, 293 cells coexpressing G protein α-subunits and T1R3 (trehalose receptor). The format is cell-based. The settings on record: Table 4: sweet taste substances on cells coexpressing G protein α-subunits and T1R3, measured similarly as in Example 4. On the procedure:
The coexpression vector for the G protein α-subunit α15 and the G protein α16/Z chimeric protein (hereinafter designated as “G protein α-subunits”) obtained in Example 1-3 was gene transferred to 293 cells, RCB 1637, a human embryonic kidney cell line, available from the Riken Bioresource Center, Ibaraki, Japan, by conventional lipofection. The gene transferred cells were suspended in Dulbecco's Modified Eagle's Medium (D-MEM) supplemented with 1 mg/L of “PUROMYCIN”, a trade mane of puromycin commercialized by Edge Biosystems, MD, USA, and 10% (v/v) of fetal calf serum to give a cell density of 2×10^6 cells/ml and cultured in a plastic petri dish for cell culture. After 10 to 14 days of incubation, a puromycin-resistant cell colony was collected and confirmed its production of the G protein α-subunit proteins with an index of their mRNA level by conventional RT-PCR. Thus, a cell line capable of expressing the G protein α-subunit proteins was established. To the cells were gene transferred an expression vector for the sweet taste receptor protein T1R1, T1R2, or T1R3 in Example 2-2; or a coexpression vector for a pair of T1R1 and T1R2, T1R1 and T1R3, or T1R2 and T1R3 by conventional lipofection. The resulting cells were suspended in D-MEM supplemented with 1 mg/L of “PUROMYCIN”, 500 mg/L of “GENETICIN”, and 10% (v/v) of fetal calf serum and cultured in a plastic petri dish for cell culture. After 10 to 14 days of incubation, a cell colony resistant to both of the above drugs was collected and confirmed that the transferred gene had been expressed intracellularly as expected by conventional RT-PCR at a mRNA level. Thus, a cell, which had coexpressed the desired G proteins and sweet taste receptors, was obtained. As a control, a cell, into which an expression vector with no G protein α-subunit protein gene or sweet taste receptor protein gene, was prepared and used.
The captioned reactivity test was conducted according to a conventional intracellular calcium ion assay: 293 Cells prepared in Example 3, capable of coexpressing the G protein α-subunits and the sweet taste receptor(s), were cultured in a plastic petri dish for cell culture until reaching its confluent phase. Thereafter, the cells were detached from the inner surface of the petri dish with a 0.05% (v/v) trypsin solution and a 0.53 mM EDTA solution, suspended in D-MEM supplemented with 10% (v/v) fetal calf serum to give a cell density of 1×10^6 cells/ml, and allowed to intake “FLUO-4. AM”, a reagent for detecting intracellular calcium ion commercialized by Molecular Probes Inc., Ore., USA, by adding to the cell suspension to give a final concentration of 2 μM and incubating the cells at 37 ° C. for 30 to 90 min. The resulting cells were washed with a buffer for detecting calcium ion, which contained 10 mM HEPES (pH 7.4), 130 mM sodium chloride, 5.4 mM potassium chloride, 2 mM calcium chloride, 1 mM magnesium chloride, 5.5 mM D-glucose, 0.1% (v/v) calf serum albumin, and 1 mM sodium pyruvate to remove the reagent remained extracellularly; suspended in a fresh preparation of the same buffer to give a cell density of 2.67 ×10^7 cells/ml; filtered with a membrane with a pore size of 100 μm mesh; and allowed to stand at 25° C. for 30 min. Two milliliters of the resultant cell suspension was injected into a glass cuvette, commercialized by Hitachi, Ltd., Tokyo, Japan, and analyzed on “HITACHI 650-40”, a fluorescence spectrophotometer commercialized by Hitachi, Ltd., Tokyo, Japan. […]

Residues, ends and D or L forms follow the SMILES beside them.

For the molecule `C[C@H](N)C(=O)O` [Alanine], the “Influx of calcium ion” value is on record as “Negative”.

As to `OC[C@@H](O)[C@@H](O[C@H]1O[C@H](CO)[C@@H](O)[C@H](O)[C@H]1O)[C@H](O)[C@@H](O)CO` [Maltitol], the “Influx of calcium ion” value is on record as “Negative”.

As to `OC[C@H]1O[C@H](O[C@]2(CCl)O[C@H](CCl)[C@@H](O)[C@@H]2O)[C@H](O)[C@@H](O)[C@H]1Cl` [Sucralose], the “Influx of calcium ion” value is “Negative”.

For `OC[C@@H](O)[C@@H](O)CO` [Erythritol], the “Influx of calcium ion” value is given as “Negative”. The same measure for `O=C[C@H](O)[C@@H](O)[C@@H](O)[C@H](O)CO` [Galactose]: “Negative”. For `COC(=O)[C@H](Cc1ccccc1)NC(=O)[C@@H](N)CC(=O)O` [Aspartame] (HELM PEPTIDE1{D.F.[CO[*:1]]}$$$$V2.0), the “Influx of calcium ion” value is “Negative”. Regarding `NCC(=O)O` [L-Glycine], the “Influx of calcium ion” value was “Negative”. The result for `O=C(CO)[C@@H](O)[C@H](O)[C@H](O)CO` [Fructose] reads “Negative”.
